# Measurements taken from ChEMBL document CHEMBL1671687, “Enhancement of biofilm formation by subinhibitory concentrations of macrolides in icaADBC-positive and -negative clinical isolates of Staphylococcus epidermidis” (2010).
# Legend:
# Type in all cases: functional
# [1] = system: Staphylococcus epidermidis; assay: Enhancement of biofilm formation Staphylococcus epidermidis SW029 expressing icaA gene at subinhibitory concentration by microtiter plate assay; set-up: scale not given: the % may be the effect or the level left
# [2] = system: Staphylococcus epidermidis; assay: Enhancement of biofilm formation Staphylococcus epidermidis SW032 expressing icaA gene at subinhibitory concentration by microtiter plate assay; set-up: scale not given: the % may be the effect or the level left
# [3] = system: Staphylococcus epidermidis; assay: Enhancement of biofilm formation Staphylococcus epidermidis SW045 expressing icaA gene at subinhibitory concentration by microtiter plate assay; set-up: scale not given: the % may be the effect or the level left
# [4] = system: Staphylococcus epidermidis; assay: Enhancement of biofilm formation Staphylococcus epidermidis SW058 expressing icaA gene at subinhibitory concentration by microtiter plate assay; set-up: scale not given: the % may be the effect or the level left
# [5] = system: Staphylococcus epidermidis; assay: Enhancement of biofilm formation Staphylococcus epidermidis SW061 expressing icaA gene at subinhibitory concentration by microtiter plate assay; set-up: scale not given: the % may be the effect or the level left
# [6] = system: Staphylococcus epidermidis; assay: Enhancement of biofilm formation Staphylococcus epidermidis SW067 expressing icaA gene at subinhibitory concentration by microtiter plate assay; set-up: scale not given: the % may be the effect or the level left
# [7] = system: Staphylococcus epidermidis; assay: Enhancement of biofilm formation Staphylococcus epidermidis SW085 expressing icaA gene at subinhibitory concentration by microtiter plate assay; set-up: scale not given: the % may be the effect or the level left
# [8] = system: Staphylococcus epidermidis; assay: Enhancement of biofilm formation Staphylococcus epidermidis SW098 expressing icaA gene at subinhibitory concentration by microtiter plate assay; set-up: scale not given: the % may be the effect or the level left
# [9] = system: Staphylococcus epidermidis; assay: Enhancement of biofilm formation Staphylococcus epidermidis SW104 expressing icaA gene at subinhibitory concentration by microtiter plate assay; set-up: scale not given: the % may be the effect or the level left
# [10] = system: Staphylococcus epidermidis; assay: Enhancement of biofilm formation Staphylococcus epidermidis SW126 expressing icaA gene at subinhibitory concentration by microtiter plate assay; set-up: scale not given: the % may be the effect or the level left
# [11] = system: Staphylococcus epidermidis; assay: Enhancement of biofilm formation Staphylococcus epidermidis SW015 at subinhibitory concentration by microtiter plate assay; set-up: scale not given: the % may be the effect or the level left
# [12] = system: Staphylococcus epidermidis; assay: Enhancement of biofilm formation Staphylococcus epidermidis SW021 at subinhibitory concentration by microtiter plate assay; set-up: scale not given: the % may be the effect or the level left
# [13] = system: Staphylococcus epidermidis; assay: Enhancement of biofilm formation Staphylococcus epidermidis SW036 at subinhibitory concentration by microtiter plate assay; set-up: scale not given: the % may be the effect or the level left
# [14] = system: Staphylococcus epidermidis; assay: Enhancement of biofilm formation Staphylococcus epidermidis SW070 at subinhibitory concentration by microtiter plate assay; set-up: scale not given: the % may be the effect or the level left
# [15] = system: Staphylococcus epidermidis; assay: Enhancement of biofilm formation Staphylococcus epidermidis SW071 at subinhibitory concentration by microtiter plate assay; set-up: scale not given: the % may be the effect or the level left
# [16] = system: Staphylococcus epidermidis; assay: Enhancement of biofilm formation Staphylococcus epidermidis SW082 at subinhibitory concentration by microtiter plate assay; set-up: scale not given: the % may be the effect or the level left
# [17] = system: Staphylococcus epidermidis; assay: Enhancement of biofilm formation Staphylococcus epidermidis SW088 at subinhibitory concentration by microtiter plate assay; set-up: scale not given: the % may be the effect or the level left
# [18] = system: Staphylococcus epidermidis; assay: Enhancement of biofilm formation Staphylococcus epidermidis SW099 at subinhibitory concentration by microtiter plate assay; set-up: scale not given: the % may be the effect or the level left
# [19] = system: Staphylococcus epidermidis; assay: Enhancement of biofilm formation Staphylococcus epidermidis SW115 at subinhibitory concentration by microtiter plate assay; set-up: scale not given: the % may be the effect or the level left
# [20] = system: Staphylococcus epidermidis; assay: Enhancement of biofilm formation Staphylococcus epidermidis SW120 at subinhibitory concentration by microtiter plate assay; set-up: scale not given: the % may be the effect or the level left
# [21] = system: Staphylococcus epidermidis; assay: Antimicrobial activity against Staphylococcus epidermidis SW029 expressing icaA gene
# [22] = system: Staphylococcus epidermidis; assay: Antimicrobial activity against Staphylococcus epidermidis SW036
# [23] = system: Staphylococcus epidermidis; assay: Antimicrobial activity against Staphylococcus epidermidis SW027 expressing icaA gene assessed as enhancement of biofilm formation at subinhibitory concentration by microtiter plate assay; set-up: scale not given: the % may be the effect or the level left
# [24] = system: Staphylococcus epidermidis; assay: Enhancement of biofilm formation Staphylococcus epidermidis ATCC 35984 expressing icaA gene at subinhibitory concentration by microtiter plate assay; set-up: scale not given: the % may be the effect or the level left
structure (smiles),measurement,setting,value
CC[C@H]1OC(=O)[C@H](C)[C@@H](O[C@H]2C[C@@](C)(OC)[C@@H](O)[C@H](C)O2)[C@H](C)[C@@H](O[C@@H]2O[C@H](C)C[C@H](N(C)C)[C@H]2O)[C@](C)(OC)C[C@@H](C)C(=O)[C@H](C)[C@@H](O)[C@]1(C)O [CLARITHROMYCIN],Activity,[1],146.4%
same,Activity,[2],71.8%
same,Activity,[3],32.2%
same,Activity,[4],54.9%
same,Activity,[5],46.3%
same,Activity,[6],140.2%
same,Activity,[7],275.8%
same,Activity,[8],112.8%
same,Activity,[9],51.5%
same,Activity,[10],50.3%
same,Activity,[11],78.6%
same,Activity,[12],54.6%
same,Activity,[13],292%
same,Activity,[14],155.6%
same,Activity,[15],147.2%
same,Activity,[16],62.8%
same,Activity,[17],201.5%
same,Activity,[18],38.7%
same,Activity,[19],164%
same,Activity,[20],50.6%
same,MIC,[21],> 128 µg/mL
same,MIC,[22],16 µg/mL
same,Activity,[23],62.3%
same,Activity,[24],-3.9%
